Measured values as given in ChEMBL document CHEMBL3217603, “Synthesis and NMDA receptor affinity of dexoxadrol analogues with modifications in position 4 of the piperidine ring” (Medchemcomm, 2010).

Columns and labels:
[1] = Displacement of [3H]-(+)-MK801 from pig brain phencyclidine binding site of NMDA receptor by scintillation counting; design: species or system Sus scrofa
[2] = tested on: Sigma-2 receptor (Rattus norvegicus); test: Displacement of [3H]-di-o-tolylguanidine from sigma-2 receptor in rat liver homogenate at 1 uM by liquid scintillation counting
Sus scrofa = organism: Sus scrofa; test: Displacement of [3H]-(+)-MK801 from pig brain phencyclidine binding site of NMDA receptor at 1 uM by scintillation counting
[3] = molecular target: Sigma-2 receptor (Rattus norvegicus); test: Displacement of [3H]-di-o-tolylguanidine from sigma-2 receptor in rat liver homogenate by liquid scintillation counting

SMILES | Ki [1] [nM] | inhibition [2] [%] | inhibition (Sus scrofa) [%] | Ki [3] [nM]
O=C1CCN[C@H]([C@H]2COC(c3ccccc3)(c3ccccc3)O2)C1 (racemic) | 470 |  |  | 
O[C@H]1CCN[C@H]([C@H]2COC(c3ccccc3)(c3ccccc3)O2)C1 (racemic) | 44 | 13 |  | 
CN[C@H]1CCN[C@H]([C@@H]2COC(c3ccccc3)(c3ccccc3)O2)C1 (racemic) |  |  | 16 | 3670
O[C@@H]1CCN[C@H]([C@H]2COC(c3ccccc3)(c3ccccc3)O2)C1 (racemic) | 527 | 2 |  | 
CO[C@H]1CCN[C@H]([C@H]2COC(c3ccccc3)(c3ccccc3)O2)C1 (racemic) | 981 | 9 |  | 
O=C(OCc1ccccc1)N1CC[C@H](NCc2ccccc2)C[C@H]1[C@@H]1COC(c2ccccc2)(c2ccccc2)O1 (racemic) |  |  | 30 | 442
CN[C@@H]1CCN(C(=O)OCc2ccccc2)[C@H]([C@@H]2COC(c3ccccc3)(c3ccccc3)O2)C1 (racemic) |  | 28 | 7 | 
CN[C@@H]1CCN(C(=O)OCc2ccccc2)[C@H]([C@H]2COC(c3ccccc3)(c3ccccc3)O2)C1 (racemic) |  | 42 | 10 | 
CN[C@@H]1CCN[C@H]([C@@H]2COC(c3ccccc3)(c3ccccc3)O2)C1 (racemic) |  | 44 | 16 | 
CN[C@@H]1CCN[C@H]([C@H]2COC(c3ccccc3)(c3ccccc3)O2)C1 (racemic) |  | 12 | 40 | 
CN[C@H]1CCN(C(=O)OCc2ccccc2)[C@H]([C@@H]2COC(c3ccccc3)(c3ccccc3)O2)C1 (racemic) |  | 18 | 7 | 
CN[C@H]1CCN(C(=O)OCc2ccccc2)[C@H]([C@H]2COC(c3ccccc3)(c3ccccc3)O2)C1 (racemic) |  | 35 | 6 | 
CN[C@H]1CCN[C@H]([C@H]2COC(c3ccccc3)(c3ccccc3)O2)C1 (racemic) |  | 37 | 30 | 
CO[C@@H]1CCN[C@H]([C@@H]2COC(c3ccccc3)(c3ccccc3)O2)C1 (racemic) |  | 18 | 37 | 
CO[C@@H]1CCN[C@H]([C@H]2COC(c3ccccc3)(c3ccccc3)O2)C1 (racemic) |  | 5 | 49 | 
CO[C@H]1CCN[C@H]([C@@H]2COC(c3ccccc3)(c3ccccc3)O2)C1 (racemic) |  | 23 | 21 | 
N[C@@H]1CCN[C@H]([C@@H]2COC(c3ccccc3)(c3ccccc3)O2)C1 (racemic) |  | 15 | 26 | 
N[C@@H]1CCN[C@H]([C@H]2COC(c3ccccc3)(c3ccccc3)O2)C1 (racemic) |  | 26 | 44 | 
N[C@H]1CCN[C@H]([C@@H]2COC(c3ccccc3)(c3ccccc3)O2)C1 (racemic) |  | 13 | 25 | 
N[C@H]1CCN[C@H]([C@H]2COC(c3ccccc3)(c3ccccc3)O2)C1 (racemic) |  | 17 | 17 | 
O=C(OCc1ccccc1)N1CC[C@@H](NCc2ccccc2)C[C@H]1[C@@H]1COC(c2ccccc2)(c2ccccc2)O1 (racemic) |  | 23 | 8 | 
O=C(OCc1ccccc1)N1CC[C@@H](NCc2ccccc2)C[C@H]1[C@H]1COC(c2ccccc2)(c2ccccc2)O1 (racemic) |  | 14 | 20 | 
O=C(OCc1ccccc1)N1CC[C@H](NCc2ccccc2)C[C@H]1[C@H]1COC(c2ccccc2)(c2ccccc2)O1 (racemic) |  | 8 | 15 | 
O=C1CCN[C@H]([C@@H]2COC(c3ccccc3)(c3ccccc3)O2)C1 (racemic) |  |  | 84 | 
O[C@@H]1CCN[C@H]([C@@H]2COC(c3ccccc3)(c3ccccc3)O2)C1 (racemic) |  | 0 | 0 | 
O[C@H]1CCN[C@H]([C@@H]2COC(c3ccccc3)(c3ccccc3)O2)C1 (racemic) |  | 30 | 3 | 
